According to US10294470B2, “Electronic expression of the inward rectifier in cardiocytes derived from human induced pluripotent stem cells” (The Research Foundation for The State University of New York, priority 2013, dated 2019):

System: h-iPSC-derived cardiac myocytes
Assay: Current clamp action potential recording in paced h-iPSC-derived cardiac myocytes with and without electronic IK1
Type: cell-based, human
Conditions: 1 μM; for effect on action potential duration (APD): paced cells with electronic expression of IK1,synthetic; for effect on action potential duration / repolarization / effect on spontaneous activity: paced cells without electronic IK1
Description: Commercially-available iPSC-derived cardiac myocytes (iCell Dynamics, WI), were prepared according to manufacturer's instructions. Briefly, ICELL® cardiac myocytes (cryopreserved single-cell suspensions in 1 ml cryovials) were stored in liquid nitrogen. Vials were thawed in a waterbath (37° C.). Cells were washed then rinsed with 1 ml of RT “ICELL® Cardiomyocyte Plating Medium.” An additional 8 ml of plating medium was added and cells mixed with solution by gentile inversion. Cardiocytes were seeded on 15 mm cover-slips coated with 0.01% (w/v) gelatin solution in 12-well plates. Cardiocytes were seeded (20,000-40,000/dish) in 2 ml of RT plating medium, permitting single cell culture, and incubated for 2+ days at 37° C., 7% CO2. Non adherent cells were removed by rinsing with “ICELL® Cardiomyocyte Maintenance Medium.” A further 2 ml of maintenance medium was added. Maintenance medium was changed every 2 days, and cells were used within 1 week.
iPSC-derived cardiocytes were voltage clamped. Currents were recorded using whole-cell clamp at RT. Cells in the recording chamber (300 μl) were continuously perfused with Tyrode. Pipettes fabricated from borosilicate glass (Flaming/Brown horizontal micropipette puller) and tips heat-polished (NARISHIGE® microforge). Pipettes contained (mM): 10 NaCl, 125 KCl, 1 MgSO4, 5 EGTA, 5 ATP (Mg salt), 5 Tris-creatinephosphate, 0.3 GTP, 10 HEPES, pH 7.2. Extracellular solution (mM): 150 NaCl, 5.4 KCl, 0.5 Na2HPO4, 1 MgCl2, 2 CaCl2), 10 glucose, 10 HEPES, pH7.4. After establishing a seal (1-10 Gohm), suction and voltage pulses were used to rupture the patch. Currents were recorded (Axopatch-1D, Molecular Dynamics, CA) and interfaced to a PENTIUM® 4 computer via a DIGIDATA® 1322A (Molecular Dynamics, CA). PCLAMP® 9.0 (Molecular Dynamics, CA) was used to control protocols and data acquisition.
We used an Analog and Digital I/O board PCIe-DAS1602/16 (Measurement Computing Corporation) installed on a on a DELL PRECISION® T7500 workstation with 2 INTEL® XEON® CPU E5520 to transfer the Vm signal to the signal of IK1 current. Source code is in the supplement.
Analysis was performed using PCLAMP® 9 (Molecular Dynamics). Action potential duration (APD) was computed for 50% (APD50) and 90% (APD90) of repolarization in ms. Maximum rate of rise of the AP upstroke was determined (dVm/dtmax) in mV/ms. Resting membrane potential was recorded prior to each AP. For spontaneous APs, the diastolic characteristics were reported for the period of time between complete AP repolarization and the beginning of depolarization in the subsequent AP. Duration, and minimum/mean potentials were computed for the diastolic period.
In order to overcome the lack of IK1 in h-iPSC-derived cardiac myocytes, we developed a variation of the dynamic clamp approach to inject a synthetic version of IK1 (FIG. 1). The center of the system is the isolated h-iPSC-derived cardiac myocyte under whole cell voltage or current clamp. Whole cell clamp is accomplished with a gigaseal under conventional current clamp mode. The membrane voltage of the cardiac myocyte is output from the amplifier and fed into a computer via a digitizer which calculates the inward rectifier current for the membrane potential, according to the equation shown in FIG. 1. The calculated value of IK1,Synthetic is passed through a potentiometer (used to adjust amplitude without sacrificing digital resolution) to scale IK1 and then summed with the standard stimulation input from PCLAMP®. A switch allows rapid changes between conventional current clamp and summed input. When the summed input is switched on, the myocyte receives the sum of two inputs: the standard AP stimulus current plus IK1,Synthetic from the real-time current simulator. The standard voltage clamp electronics can be driven via the summing circuit without modification of conventional voltage clamp and data recording with only minor software selection changes of input/output channels. […]

Structure (SMILES): COC(=O)C1=C(C)NC(C)=C([N+](=O)[O-])C1c1ccccc1C(F)(F)F (stereo not drawn) [BayK-8644]
- effect on action potential duration (APD): clear AP prolongation
- effect on action potential duration (APD) (listed as BayK8644): APD is prolonged
- effect on action potential duration / repolarization: not uniformly observed
- effect on spontaneous activity: termination of spontaneous full scale AP activity
- effect on action potential duration / repolarization (listed as BayK8644): severely shortened repolarization
- effect on spontaneous activity (listed as BayK8644): terminated spontaneous activity
- arrhythmogenic phenomenon of alternans (with IK1,synthetic): alternans is observed
- Ratio of APD90 with/without BayK8644 (with IK1,synthetic expression): major increase in APD
- Ratio of APD90 with/without BayK8644 (without IK1,synthetic expression): anomalous decrease in APD90
